# Patent US8815875B2 (Merck Sharp & Dohme Corp., priority 2008, dated 2014)
# pKd: −log10 of the molar value.
# How the values were obtained:
# FABP4 = FABP4 (Homo sapiens, UniProt P15090); assay: TdF (Temperature Dependence Fluorescence) assay, thermal shift, FABP4; assay type: binding
# Outline: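 Binding measured as ΔTm versus protein alone; binding constants derived by nonlinear fitting with ΔHL set to −7 kcal/mol and ΔCpL to zero.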
# FABP5 = FABP5 (Homo sapiens, UniProt Q01469); assay: TdCD (Temperature-dependent Circular Dichroism) assay, FABP5; assay type: binding; conditions: T=20° C.; compounds tested at 50 μM and 25 μM
# FABP5, sequence (Q01469 whole entry, species assumed): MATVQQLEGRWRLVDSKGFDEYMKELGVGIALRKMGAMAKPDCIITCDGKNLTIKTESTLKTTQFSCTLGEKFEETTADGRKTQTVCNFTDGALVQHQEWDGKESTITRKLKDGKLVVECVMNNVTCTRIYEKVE
# Source text: [formula] (see Brandts et al and Mayhood et al, shown above) where ΔHL (T) is the van't Hoff enthalpy of ligand binding at temperature T and ΔCpL is the heat capacity upon ligand binding. For simplicity, the ΔCpL and ΔHL (T) were set to zero and −7 kcal/mol respectively. […] TdCD (Temperature-dependent Circular Dichroism) Assay for FABP3/4/5
# JASCO 810 spectropolarimeter was used to measure Circular Dichroism (CD) spectra and temperature-dependent protein unfolding profiles. The instrument is equipped with a 6-cell piezoelectric temperature controller. Ellipticity was monitored at 226 nm as a function of temperature with a 1 mm path length cell. The scan rate was 1° C./min with a 4 s response time and 30 s equilibration between measurements.
# 10 mM stocks of individual compounds were made in 100% DMSO. […] DMSO was added to protein-alone (apo) samples to 1% to compensate for DMSO amounts in protein+ligand samples.
# Briefly, the To (midpoint of unfolding for the unliganded protein) was calculated from best fit of the unfolding data to the equation below:
# [formula] Where, Yobs is the observed ellipticity value at any temperature T, Yn and Yu are the predicted ellipticity values for fully folded and unfolded species, respectively, mn and mu are slope correction for changes in Yn and Yu with respect to changes in temperature. T0 is the midpoint temperature at which the unliganded protein unfolds and ΔHu and ΔCpu are the heat of unfolding and heat capacity of unfolding, respectively for the unliganded species.
# In presence of ligand, the midpoint temperature (Tm) defines where the equilibrium concentrations of unfolded and folded species are equal. Incorporation of the unliganded free energy of binding and subsequent thermodynamic substitution yielded the binding constant of the ligand at the Tm value of unfolding:
# [formula] where, T0 is the midpoint of unfolding for unliganded protein and Tm is the midpoint of unfolding in presence of ligand. [LTm] is free ligand at Tm.
# Based on estimates for enthalpy of binding, ΔHL (estimated to be −7 kcal/mol) and ligand binding heat capacity ΔCpL (set to be zero), the ligand binding association constant (KL) at temperature T=20° C. were calculated as below.
# FABP4, sequence (P15090 whole entry, species assumed): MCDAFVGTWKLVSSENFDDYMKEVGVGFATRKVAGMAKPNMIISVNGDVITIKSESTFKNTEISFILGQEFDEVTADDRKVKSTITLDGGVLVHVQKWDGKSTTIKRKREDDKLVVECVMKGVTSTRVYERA
Structure (SMILES),FABP4 TdF Kd (FABP4),pKd (FABP5)
O=c1cc(CN2CCc3c(Br)cccc32)[nH]c2nc(-c3ccccc3)nn12 [1-17],B (0.5 ≦ B < 0.001 μM),< 6.30
O=c1cc(CN2CCc3c(Cl)cccc32)[nH]c2nc(-c3ccccc3)nn12 [6-3],B (0.5 ≦ B < 0.001 μM),< 6.30
O=c1c(Cl)c(COc2cccc(Cl)c2C2CC2)[nH]c2nc(-c3ccccc3)nn12 [24-1],–,> 6.30

# Other lines, results leading:
FABP4 TdF Kd (FABP4),pKd (FABP5),Structure (SMILES)
B (0.5 ≦ B < 0.001 μM),> 6.30,O=c1cc(COc2cccc(Cl)c2C2CCC2)[nH]c2nc(-c3ccccc3)nn12 [26-3]
B (0.5 ≦ B < 0.001 μM),> 6.30,CC1(C)CCCC(OCc2cc(=O)n3nc(-c4ccccc4)nc3[nH]2)C1 (stereo not drawn) [1-152]
B (0.5 ≦ B < 0.001 μM),> 6.30,O=c1cc(COc2cccc(Cl)c2C2CC2)[nH]c2nc(-c3ccccc3)nn12 [20-2]
B (0.5 ≦ B < 0.001 μM),> 6.30,O=c1cc(COc2csc(C(F)(F)F)c2)[nH]c2nc(-c3ccccc3)nn12 [1-5]
B (0.5 ≦ B < 0.001 μM),< 6.30,Cc1c(Cl)cccc1N(C)Cc1cc(=O)n2nc(-c3ccccc3)nc2[nH]1 [6-4]
